This passage reports IC50 and viability, T/C results from PubChem BioAssay AID1918947 (Molecular Pharmacology Branch, DTP, NCI, 2023).

Several values for one entry are separate records, joined by “and”; a condition that tells them apart may be missing. Identical values can stand only once. Bounds are passed on as bounds.

By IC50 is commonly meant the concentration that gives 50% inhibition. For orientation: viability, T/C means the result in the treated group divided by that in the control group, in per cent.

This test deals with A498 complex spheroid viability. Kind of test: Anticancer human tumor A498 cell line growth inhibition.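 For all read-outs here: spheroids exposed to agents for seven days before readout.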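 For viability, T/C: 100% = DMSO vehicle-treated spheroids.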 Conditions: for viability, T/C: stronger effect = lower value. The procedure, abridged:
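Drug combinations with the LSD1 inhibitor iadademstat tested on tumor cells co-cultured as spheroids with endothelial cells and mesenchymal stem cells. Concentrations descended in half-log increments from clinical Cmax or 10 microM.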

Setting [1] is: curve of first compound, second compound 0.1 µM.
[2] abbreviates: curve of first compound, second compound 0.316 µM.
[3] abbreviates: curve of first compound, second compound 1 µM.
The mark [4] stands for this setting: curve of first compound, second compound 3.16 µM.
Setting [5] is: curve of first compound, second compound 10 µM.
The mark [6] stands for this setting: second compound 0.1 µM, first compound 0.0316 µM.
[7] abbreviates: second compound 0.1 µM, first compound 0.1 µM.
Where [8] appears, read: second compound 0.1 µM, first compound 0.316 µM.
[9] abbreviates: second compound 0.1 µM, first compound 1 µM.
The mark [10] stands for this setting: second compound 0.316 µM, first compound 0.0316 µM.
Setting [11] is: second compound 0.316 µM, first compound 0.1 µM.
Setting [12] is: second compound 0.316 µM, first compound 0.316 µM.
The mark [13] stands for this setting: second compound 0.316 µM, first compound 1 µM.
Setting [14] is: second compound 1 µM, first compound 0.0316 µM.
Setting [15] is: second compound 1 µM, first compound 0.1 µM.
[16] abbreviates: second compound 1 µM, first compound 0.316 µM.
[17] abbreviates: second compound 1 µM, first compound 1 µM.
The mark [18] stands for this setting: second compound 3.16 µM, first compound 0.0316 µM.
Where [19] appears, read: second compound 3.16 µM, first compound 0.1 µM.
Where [20] appears, read: second compound 3.16 µM, first compound 0.316 µM.
[21] abbreviates: second compound 3.16 µM, first compound 1 µM.
Setting [22] is: second compound 10 µM, first compound 0.0316 µM.
Where [23] appears, read: second compound 10 µM, first compound 0.1 µM.
The mark [24] stands for this setting: second compound 10 µM, first compound 0.316 µM.
Setting [25] is: second compound 10 µM, first compound 1 µM.

Turning to `Nc1ncn(C2CC(O)C(CO)S2)c(=O)n1` (stereo not drawn) + NC1CC1c1ccc(-c2cccc(O)c2)cc1, the IC50 was determined as 255 nM under setting [1]; 254 nM under setting [2]; 257 nM under setting [3]; 236 nM under setting [4]; 259 nM under setting [5]. Moreover, the viability, T/C was 110% (second compound 0.1 µM, first compound 0.000949 µM); 116% (second compound 0.1 µM, first compound 0.003 µM); 115% (second compound 0.1 µM, first compound 0.00949 µM); 95.4% (second compound 0.1 µM, first compound 0.03 µM); 74.7% (second compound 0.1 µM, first compound 0.0949 µM); 45.9% (second compound 0.1 µM, first compound 0.3 µM). Besides, the viability, T/C is 114% (second compound 0.316 µM, first compound 0.000949 µM); 121% (second compound 0.316 µM, first compound 0.003 µM); 116% (second compound 0.316 µM, first compound 0.00949 µM); 104% (second compound 0.316 µM, first compound 0.03 µM); 81.9% (second compound 0.316 µM, first compound 0.0949 µM); 44.6% (second compound 0.316 µM, first compound 0.3 µM). The viability, T/C is 118% (second compound 1 µM, first compound 0.000949 µM); 123% (second compound 1 µM, first compound 0.003 µM); 119% (second compound 1 µM, first compound 0.00949 µM); 105% (second compound 1 µM, first compound 0.03 µM); 81.8% (second compound 1 µM, first compound 0.0949 µM); 44.8% (second compound 1 µM, first compound 0.3 µM). For the same compound, the viability, T/C runs as follows: (second compound 3.16 µM, first compound 0.000949 µM) 114%; (second compound 3.16 µM, first compound 0.003 µM) 106%; (second compound 3.16 µM, first compound 0.00949 µM) 125%; (second compound 3.16 µM, first compound 0.03 µM) 109%; (second compound 3.16 µM, first compound 0.0949 µM) 78.7%; (second compound 3.16 µM, first compound 0.3 µM) 42.5%. The viability, T/C was 104% (second compound 10 µM, first compound 0.000949 µM); 110% (second compound 10 µM, first compound 0.003 µM); 118% (second compound 10 µM, first compound 0.00949 µM); 105% (second compound 10 µM, first compound 0.03 µM); 87.9% (second compound 10 µM, first compound 0.0949 µM); 44.5% (second compound 10 µM, first compound 0.3 µM).
Take `COc1cc(Nc2ncc3c(n2)-c2ccc(Cl)cc2C(c2c(F)cccc2OC)=NC3)ccc1C(=O)O` + NC1CCC(NC2CC2c2ccccc2)CC1: the IC50 under setting [1] is 256 nM; the IC50 under setting [2] amounted to 454 nM; the IC50 under setting [3] turned out to be 415 nM; the IC50 under setting [4] is 291 nM; the IC50 under setting [5] is 523 nM. The viability, T/C reads like this: (second compound 0.1 µM, first compound 0.00316 µM) 86.1%; (second compound 0.1 µM, first compound 0.01 µM) 72.4%; under setting [6], 66.2%; under setting [7], 56%; under setting [8], 47.7%; under setting [9], 43.2%. Moreover, the viability, T/C (second compound 0.316 µM, first compound 0.00316 µM) is 89.6%; the viability, T/C (second compound 0.316 µM, first compound 0.01 µM) is 80.1%; the viability, T/C under setting [10] is 74.5%; the viability, T/C under setting [11] was 63%; the viability, T/C under setting [12] is 50.5%; the viability, T/C under setting [13] was 45.9%. Further, the viability, T/C (second compound 1 µM, first compound 0.00316 µM) was 80.2%; the viability, T/C (second compound 1 µM, first compound 0.01 µM) was 78.3%; the viability, T/C under setting [14] is 73.4%; the viability, T/C under setting [15] is 55.5%; the viability, T/C under setting [16] was 57.1%; the viability, T/C under setting [17] is 40.9%. Further, the viability, T/C is 83.1% (second compound 3.16 µM, first compound 0.00316 µM); 70% (second compound 3.16 µM, first compound 0.01 µM); 73.1% under setting [18]; 55.1% under setting [19]; 51% under setting [20]; 39.1% under setting [21]. In addition, the viability, T/C runs as follows: (second compound 10 µM, first compound 0.00316 µM) 73%; (second compound 10 µM, first compound 0.01 µM) 64.3%; under setting [22], 72.3%; under setting [23], 61.5%; under setting [24], 56.8%; under setting [25], 42.1%.
With `NC1CCC(NC2CC2c2ccccc2)CC1` (stereo not drawn), the viability, T/C runs as follows: (compound 0.1 µM) 86.8% [middle of 25 runs]; (compound 0.316 µM) 85.2% and 90.6%; (compound 1 µM) 86% [middle of 25 runs]; (compound 3.16 µM) 84.7% [middle of 25 runs]; (compound 10 µM) 75.1% [middle of 23 runs]. Further, the IC50 (compound alone, run of 11/29/2021) was more than 10000 nM.
Turning to `O=C(c1cc(Cc2n[nH]c(=O)c3ccccc23)ccc1F)N1CCN(C(=O)C2CC2)CC1` + NC1CC1c1ccc(-c2cccc(O)c2)cc1, the IC50 runs as follows: under setting [1], more than 10000 nM; under setting [2], more than 10000 nM; under setting [3], more than 10000 nM; under setting [4], more than 10000 nM; under setting [5], more than 10000 nM. The viability, T/C is, setting by setting: under setting [6], 107%; under setting [7], 111%; under setting [8], 105%; under setting [9], 105%; (second compound 0.1 µM, first compound 3.16 µM) 107%; (second compound 0.1 µM, first compound 10 µM) 91.5%. Besides, the viability, T/C was 109% under setting [10]; 113% under setting [11]; 111% under setting [12]; 108% under setting [13]; 102% (second compound 0.316 µM, first compound 3.16 µM); 97.8% (second compound 0.316 µM, first compound 10 µM). For the same compound, the viability, T/C by setting is: under setting [14], 107%; under setting [15], 110%; under setting [16], 105%; under setting [17], 99.1%; (second compound 1 µM, first compound 3.16 µM) 97.6%; (second compound 1 µM, first compound 10 µM) 96%. The viability, T/C is 101% under setting [18]; 105% under setting [19]; 104% under setting [20]; 103% under setting [21]; 95.2% (second compound 3.16 µM, first compound 3.16 µM); 91% (second compound 3.16 µM, first compound 10 µM). Further, the viability, T/C is 102% under setting [22]; 105% under setting [23]; 107% under setting [24]; 101% under setting [25]; 102% (second compound 10 µM, first compound 3.16 µM); 88.4% (second compound 10 µM, first compound 10 µM).
As to `Nc1ncn(C2CC(O)C(CO)O2)c(=O)n1` (stereo not drawn), the viability, T/C (compound 0.00316 µM) is 104% and 103%; the viability, T/C (compound 0.01 µM) was 103% and 107%; the viability, T/C (compound 0.0316 µM) was 97.1% and 92.8%; the viability, T/C (compound 0.1 µM) is 84.8% and 88.6%; the viability, T/C (compound 0.316 µM) is 68.6% and 82.9%; the viability, T/C (compound 1 µM) was 52.9% and 73.7%. Besides, the IC50 (curve of compound) is more than 1000 nM.
